The text below walks through data of patent US20250002489A1, “BIFUNCTIONAL COMPOUNDS FOR DEGRADING ITK VIA UBIQUITIN PROTEOSOME PATHWAY” (NURIX THERAPEUTICS, INC., priority 2021, published 2025).

This assay addresses T1, ITK (Jurkat or Molt4 cells) (Homo sapiens, UniProt Q08881).
T1 construct: either human Jurkat (Clone E6-1 ATCC TIB-152) or Motl4 (ATCC CRL-1552), were plated; endogenous in cells; host or cells: Jurkat Clone E6-1 (ATCC TIB-152) or Molt4 (ATCC CRL-1552)
T1 sequence (Q08881 1-620): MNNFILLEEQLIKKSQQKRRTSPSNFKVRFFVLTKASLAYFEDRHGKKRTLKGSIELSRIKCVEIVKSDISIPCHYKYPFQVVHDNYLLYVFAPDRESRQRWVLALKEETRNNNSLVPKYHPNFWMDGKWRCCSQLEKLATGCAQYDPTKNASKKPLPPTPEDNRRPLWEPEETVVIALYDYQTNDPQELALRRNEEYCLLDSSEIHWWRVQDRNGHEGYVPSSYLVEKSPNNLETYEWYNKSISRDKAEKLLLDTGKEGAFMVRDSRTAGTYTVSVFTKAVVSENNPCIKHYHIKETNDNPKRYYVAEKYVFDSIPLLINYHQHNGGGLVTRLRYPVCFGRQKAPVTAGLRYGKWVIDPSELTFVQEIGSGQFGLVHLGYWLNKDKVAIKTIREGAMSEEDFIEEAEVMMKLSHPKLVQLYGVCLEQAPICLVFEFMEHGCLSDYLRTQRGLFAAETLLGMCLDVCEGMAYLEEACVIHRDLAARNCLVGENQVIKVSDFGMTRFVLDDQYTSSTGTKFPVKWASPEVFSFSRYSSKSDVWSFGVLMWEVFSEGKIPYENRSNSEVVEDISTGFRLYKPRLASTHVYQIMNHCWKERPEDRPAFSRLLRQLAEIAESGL
Nature of the assay: ITK Degradation MSD (Meso Scale Discovery) Assay. The format is cell-based. The settings on record: 4 or 6 hrs incubation; for DC50: best fit IC50 used as DC50. The protocol:
Compound dilution series (7-point, 5-fold dilutions in DMSO, rows B—H with replicate in Column 1/2, 3/4, 5/6, 7, and 8 at 2000× the final required concentrations were prepared in 96-well plate (Falcon, cat. no. 353077). Row A, Column 1-8 were control DMSO. The 2000× solutions ranged from 2 mM to 128 nM (final assay concentration range 1 μM to […]). The 2000×solutions were added to cells in 10 μL volume, for a final DMSO concentration of 0.5% and final assay compound concentration of 1×. For the cells, either human Jurkat (Clone E6-1 ATCC TIB-152) or Motl4 (ATCC CRL-1552), were plated at 1×10^6 cells/mL, 100 μL/well ([…]) in complete RPMI (10% FBS, 1% L-glutamine). The cells were incubated with compounds 26-29 for 4 or 6 hrs at 32° C./6% CO2.
Following incubation, plates were centrifuged at 1200 rpm for 5 min. Supernatant was removed and 50 μL of cell lysis buffer (MSD Tris lysis buffer (R60TX), complete Mini EDTA-free protease inhibitor (Sigma 11836170001), Protease Inhibitor Cocktail (Sigma, P2714), Phosphatase Inhibitor Cocktail 2 and 3 (Sigma, P5726 and P0044), Benzonase (Sigma, E1014)) was added to each well. Plate was sealed and shook at 4° C. for 30 min. Plate was centrifuged and 45 μL was removed for plate assay.
Assay plate preparation: Meso Scale Discovery (MSD) multi-array sm spot 96-well plates (Goat anti-Rabbit L^45-RA), were blocked with 3% BSA blocking buffer (3% Bovine Serum Albumin (Sigma A3059)+TBS 0.2% Tween-20) for one hour with gentle rocking at room temperature. Plate was then washed with 200 μL of 1×TBST (TBS 0.2% Tween-20) three times. After the last wash, all liquid was removed and 50 μL per well of capture antibody (abcam ITK Y402-ab32507) was added to plate at a 1:1000 dilution in blocking buffer (see above). Plate was sealed and rocked at room temperature for 2 hrs. Plate was then washed three times with 200 μL of 1×TBST. After the last wash, all liquid was removed and 45 μL of cell lysate (from above) was added to plate. Plate was sealed and rocked overnight at 4° C. The next day, cell lysates were removed, and assay plate was washed three times with 200 μL of 1×TBST. After the last wash, liquid was removed and detection antibody (CST ITK (2F12) #2380) was added at 50 μL per well at a dilution of 1:1000 in blocking buffer. Plate was sealed and rocked at room temperature for 2 hrs. Plate was washed three times with 200 μL of 1×TBST. After the last wash, all liquid was removed, MSD […] sulfo tag (R32AC-1) was diluted to 1:1000 in blocking buffer. 50 μL was added to each well on the plate. Plate was sealed and incubated at room temperature for one hour. Plate was washed three times with 200 μL of 1×TBST. After last wash, all liquid was removed and 150 μL of 1×MSD Read Buffer T (R92PC) was then added to each well for ECL read out.
For reading ECL signal, plate was read on a Meso Scale Discovery (MSD) MESO Sector S 600 plate reader. Percent ITK was then calculated as described below.
Percent ITK remaining per sample was calculated as follows: […]
Using Graphpad Prism, % ITK remaining values were plotted as a function of compound concentration. To determine DC50 and Dmax values, resulting curves were fit to the Prism curve-fitting equation “log(inhibitor) vs response−Variable slope (four parameters)” (reported best fit value IC50 used as DC50).

A word on the Dmax: it is the largest share of the target that was removed. Lower therefore signals shallow degradation. What is called DC50 is the concentration giving 50% degradation. High values mean a less potent degrader, low ones a more potent degrader. Turning to `Cc1ncsc1-c1ccc(CNC(=O)[C@@H]2C[C@@H](O)CN2C(=O)[C@@H](NC(=O)C2(F)CC2)C(C)(C)C)c(OCCOCCOCCOCCC(=O)N2CC([C@@H](c3ccccc3)n3cc(NC(=O)c4n[nH]c5c4C[C@@H]4C(F)(F)[C@]4(C)C5)cn3)C2)c1` [Compound 19, (4aS,5aR)-5,5-difluoro-N-(1-((S)-(1-(3-(2-(2-(2-(2-(((2S,4R)-1-((S)-2-(1-fluorocyclopropane-1-carboxamido)-3,3-dimethylbutanoyl)-4-hydroxypyrrolidine-2-carboxamido)methyl)-5-(4-methylthiazol-5-yl)phenoxy)ethoxy)ethoxy)ethoxy)propanoyl)azetidin-3-yl)(phenyl)methyl)-1H-pyrazol-4-yl)-5a-methyl-1,4,4a,5,5a,6-hexahydrocyclopropa[f]indazole-3-carboxamide], the greatest degradation seen (Dmax) worked out at 95.9% and the DC50 worked out at 2.6 nM.
Turning to `CN[C@@H](C)C(=O)N[C@H](C(=O)N1CCC[C@H]1c1nc(C(=O)c2cccc(OCCOCCOCCOCCOCCC(=O)N3CC([C@@H](c4ccccc4)n4cc(NC(=O)c5n[nH]c6c5C[C@@H]5C(F)(F)[C@]5(C)C6)cn4)C3)c2)cs1)C1CCCCC1` [Compound 6, (4aS,5aR)—N-(1-((S)-(1-(1-(3-(2-((S)-1-((S)-2-cyclohexyl-2-((S)-2-(methylamino)propanamido)acetyl)pyrrolidin-2-yl)thiazole-4-carbonyl)phenoxy)-3,6,9,12-tetraoxapentadecan-15-oyl)azetidin-3-yl)(phenyl)methyl)-1H-pyrazol-4-yl)-5,5-difluoro-5a-methyl-1,4,4a,5,5a,6-hexahydrocyclopropa[f]indazole-3-carboxamide], it took 14 nM to reach half-maximal degradation (DC50).
Consider `Cc1ncsc1-c1ccc(CNC(=O)[C@@H]2C[C@@H](O)CN2C(=O)[C@@H](NC(=O)C2(F)CC2)C(C)(C)C)c(OCCCCCCCC(=O)N2CC([C@@H](c3ccccc3)n3cc(NC(=O)c4n[nH]c5c4C[C@@H]4C(F)(F)[C@]4(C)C5)cn3)C2)c1` [Compound 20, (4aS,5aR)-5,5-difluoro-N-(1-((S)-(1-(8-(2-(((2S,4R)-1-((S)-2-(1-fluorocyclopropane-1-carboxamido)-3,3-dimethylbutanoyl)-4-hydroxypyrrolidine-2-carboxamido)methyl)-5-(4-methylthiazol-5-yl)phenoxy)octanoyl)azetidin-3-yl)(phenyl)methyl)-1H-pyrazol-4-yl)-5a-methyl-1,4,4a,5,5a,6-hexahydrocyclopropa[f]indazole-3-carboxamide], for which the greatest degradation seen (Dmax) was 94.6% and it took 1.27 nM to reach half-maximal degradation (DC50).
Take `CN[C@@H](C)C(=O)N[C@H](C(=O)N1CCC[C@H]1c1nc(C(=O)c2cccc(OCCOCCN3CC([C@@H](c4ccccc4)n4cc(NC(=O)c5n[nH]c6c5C[C@@H]5C(F)(F)[C@]5(C)C6)cn4)C3)c2)cs1)C1CCCCC1` [Compound 11, (4aS,5aR)—N-(1-((S)-(1-(2-(2-(3-(2-((S)-1-((S)-2-cyclohexyl-2-((S)-2-(methylamino)propanamido)acetyl)pyrrolidin-2-yl)thiazole-4-carbonyl)phenoxy)ethoxy)ethyl)azetidin-3-yl)(phenyl)methyl)-1H-pyrazol-4-yl)-5,5-difluoro-5a-methyl-1,4,4a,5,5a,6-hexahydrocyclopropa[f]indazole-3-carboxamide]: the half-maximal degradation concentration (DC50) is 10.7 nM.
On to `Cc1ncsc1-c1ccc(CNC(=O)[C@@H]2C[C@@H](O)CN2C(=O)[C@@H](NC(=O)CCOCCOCCOCCOCCOCCOCCC(=O)N2CC([C@@H](c3ccccc3)n3cc(NC(=O)c4n[nH]c5c4C[C@@H]4C(F)(F)[C@]4(C)C5)cn3)C2)C(C)(C)C)cc1` [Compound 14, (4aS,5aR)-5,5-difluoro-N-(1-((S)-(1-((S)-24-((2S,4R)-4-hydroxy-2-((4-(4-methylthiazol-5-yl)benzyl)carbamoyl)pyrrolidine-1-carbonyl)-25,25-dimethyl-22-oxo-4,7,10,13,16,19-hexaoxa-23-azahexacosanoyl)azetidin-3-yl)(phenyl)methyl)-1H-pyrazol-4-yl)-5a-methyl-1,4,4a,5,5a,6-hexahydrocyclopropa[f]indazole-3-carboxamide], for which the DC50 was 134 nM.
`Cc1ncsc1-c1ccc(CNC(=O)[C@@H]2C[C@@H](O)CN2C(=O)[C@@H](NC(=O)C2(F)CC2)C(C)(C)C)c(OCCCC(=O)N2CC([C@@H](c3ccccc3)n3cc(NC(=O)c4n[nH]c5c4C[C@@H]4C(F)(F)[C@]4(C)C5)cn3)C2)c1` [Compound 33, (4aS,5aR)-5,5-difluoro-N-(1-((S)-(1-(4-(2-(((2S,4R)-1-((S)-2-(1-fluorocyclopropane-1-carboxamido)-3,3-dimethylbutanoyl)-4-hydroxypyrrolidine-2-carboxamido)methyl)-5-(4-methylthiazol-5-yl)phenoxy)butanoyl)azetidin-3-yl)(phenyl)methyl)-1H-pyrazol-4-yl)-5a-methyl-1,4,4a,5,5a,6-hexahydrocyclopropa[f]indazole-3-carboxamide]: the Dmax was determined as 94.5% and it took 27.9 nM to reach half-maximal degradation (DC50).
`CN[C@@H](C)C(=O)N[C@H](C(=O)N1CCC[C@H]1c1nc(C(=O)c2cccc(OCCCN3CC([C@@H](c4ccccc4)n4cc(NC(=O)c5n[nH]c6c5C[C@@H]5C(F)(F)[C@]5(C)C6)cn4)C3)c2)cs1)C1CCCCC1` [Compound 8, (4aS,5aR)—N-(1-((S)-(1-(3-(3-(2-((S)-1-((S)-2-cyclohexyl-2-((S)-2-(methylamino)propanamido)acetyl)pyrrolidin-2-yl)thiazole-4-carbonyl)phenoxy)propyl)azetidin-3-yl)(phenyl)methyl)-1H-pyrazol-4-yl)-5,5-difluoro-5a-methyl-1,4,4a,5,5a,6-hexahydrocyclopropa[f]indazole-3-carboxamide] had a half-maximal degradation concentration (DC50) of 49 nM. This counts as double-digit nanomolar.
The same measure, in the same setting: the value for `Cc1ncsc1-c1ccc(CNC(=O)[C@@H]2C[C@@H](O)CN2C(=O)[C@@H](NC(=O)CCOCCOCCOCCC(=O)N2CC([C@@H](c3ccccc3)n3cc(NC(=O)c4n[nH]c5c4C[C@@H]4C(F)(F)[C@]4(C)C5)cn3)C2)C(C)(C)C)cc1` [Compound 15, (4aS,5aR)-5,5-difluoro-N-(1-((S)-(1-((S)-15-((2S,4R)-4-hydroxy-2-((4-(4-methylthiazol-5-yl)benzyl)carbamoyl)pyrrolidine-1-carbonyl)-16,16-dimethyl-13-oxo-4,7,10-trioxa-14-azaheptadecanoyl)azetidin-3-yl)(phenyl)methyl)-1H-pyrazol-4-yl)-5a-methyl-1,4,4a,5,5a,6-hexahydrocyclopropa[f]indazole-3-carboxamide] was 54.7 nM.
